Data as given in patent publication US20030124590A1, “Carbohydrate response element binding protein and uses thereof” (priority 2001, published 2003).
Values belong to the molecule of their own block, whether it stands above or below them.

Tests used:
[1] = system: GFP-fused ChREBP; assay: Subcellular localization of GFP-fused ChREBP in primary hepatocytes (confocal microscopy); format: cell-based, rat; details: within 10 min after addition of db-cAMP into 27.5 mM glucose medium, preliminary, n=3
Procedure: Determination of Subcellular Localization of ChREBP—Subcellular localization of GFP-fused WT-ChREBP or its mutants was determined using a confocal laser scanning microscope (Bio Rad, Hercules, Calif.). In order to quantitate nuclear localization of ChREBP, for each condition, 100 transfected hepatocytes from 5 independent experiments were scored in a blinded fashion as to whether the GFP-fused ChREBP was predominantly nuclear or cytoplasmic. The identity of the nucleus was verified by comparative phase-contrast microscopy. B. Results
Rat primary cultured hepatocytes were transfected with a plasmid comprising a gene encoding the GFP-fused wild type-ChREBP or NLS domain deletion mutants. […] The values are expressed as mean±SE. *P<0.05 compared to that of wild type-ChREBP.

[2] = system: ChREBP; assay: Intraperitoneal db-cAMP in rats, gel shift of liver nuclear extracts; format: in vivo, rat; details: rats fed high carbohydrate diet, db-cAMP 1 mmol/kg intraperitoneally
Procedure: Treatment of Rats with Dibutyryl (db)-cAMP and Nuclear Extract Preparation—Male Sprague-Dawley rats weighting 250 g were used in all experiments. After 48 h starvation, the rats were fed a high carbohydrate diet and db-cAMP (1 mmol/kg) was injected intraperitoneally. The rats were sacrificed 10 min and 30 min after injection and nuclear extracts were prepared immediately from rat liver as described in Example 1. Gel shifts were performed as described in Example 2.

[3] = system: L-PK gene; assay: L-PK promoter luciferase reporter in ChREBP-transfected primary hepatocytes with kinase/phosphatase inhibitors or db-cAMP; details: treatment with db-cAMP, low and high glucose
Procedure: Primary hepatocytes were prepared from male Sprague-Dawley rats using the collagenase (Life Technologies, Inc.) perfusion method (Berry and Friend (1969) J Cell Bio […], 506-520) and plated in collagen-coated six-well tissue culture plates (Primaria Falcon, Franklin Lakes, N.J.) at a density of 1×10^6 cells/well in glucose-free Dulbecco's modified Eagle's medium (Life Technologies, Inc.) supplemented with 100 nM dexamethasone, 10 nM insulin, 100 units/ml penicillin, 100 μg/ml streptomycin and 10% dialyzed fetal bovine serum (Life Technologies, Inc.). Following attachment, synthetic liposomes were used to transfect hepatocytes with 0.5 μg of the luciferase reporter plasmid and 0.1 μg of the internal control plasmid pRL-TK. After 14 h the media was replaced by Dulbecco's modified Eagle medium supplemented with 100 nM dexamethasone, 10 nM insulin, 10% Fetal Bovine Serum and either 10 mM lactate, 5.5 mM glucose or 27.5 mM glucose. The cells were incubated for an additional 12 h prior to determination of luciferase activity using the Dual-Luciferase Reporter Assay System (Promega).
Protein Kinase and Protein Phosphatase Inhibitors—Prior to exchange to 5.5 or 27.5 mM glucose medium, transfected primary culture hepatocytes were treated for 1 h with 10 μM H-89, 500 nM cantharidic acid (Calbiochem), 5 μM KN-62 (Calbiochem), 30 μM PD98059 (Calbiochem), 50 μM Genistein, or dimethylsulfoxide vehicle.
Rat primary cultured hepatocytes were transfected a plasmid comprising a gene encoding the wild type (WT)-ChREBP. H-89, cantharidic acid, or dimethylsulfoxide vehicle was added, and the cells were incubated in 5.5 mM (□) or 27.5 mM (▪) glucose for 12 h.
Rat primary cultured hepatocytes were transfected with wild type (WT)-ChREBP, S626A, S626D, T666A, or T666D. After transfection, the cells were incubated in 5.5 mM (□) or 27.5 mM (▪) glucose for 12 h. […] Rat primary cultured hepatocytes were transfected with wild type (WT)-ChREBP, S196A+S626A, or S196A+T666A. After transfection, cells were incubated under 5.5 mM (□) or 27.5 mM (▪) glucose, and cAMP was added both low and high glucose.

[4] = system: cultured hepatocytes; assay: AMP, ADP, ATP assays in cultured hepatocytes; format: cell-based, rat; details: hepatocytes 12 h with 150 µM fatty acid, mean±S.E., n=4
Procedure: Hepatocytes were scraped and collected directly into 0.5 ml of ice-cold 6% (v/v) HClO4. The concentrations of ADP and ATP were determined enzymatically in the acid-extract with methods described (Kawaguchi, T., Veech, R. L., and Uyeda, K. (2001) J. Biol. Chem. 276, 28554-28561), and the cytosolic AMP was calculated by the method of Veech et al. (Veech, R. L., Lawson, J. W., Cornell, N. W., and Krebs, H. A. (1979) J. Biol. Chem. 254, 6538-6547).
Values are expressed as mean±S.E. (n=4).

[5] = system: AMPK; assay: AMPK activity in hepatocytes (SAMS peptide); format: cell-based, rat; details: fatty acid added to high glucose medium
Procedure: The extract was centrifuged at 15,800·g for 15 min, and the resulting supernatant solution was transferred to a fresh tube, adjusted to 10% with polyethylene glycol 8000 ([…], France), and incubated on ice for 20 min. Following centrifugation at 15,800·g for 15 min, the pellet was suspended in 100 μl buffer A. […] A. (2000) Proc. Natl. Acad. Sci. USA. 97, 4023-4028).

[6] = system: ChREBP; assay: Gel shift of purified ChREBP after incubation with PKA/PP2A in vitro; format: biochemical, rat; details: catalytic subunit of PP2A 0.025 U/μl added
Procedure: Gel shift assay. Gel mobility shift assays were performed as described by Liu et al. (Liu et al. (1993) J Biol Chem 268, 12787-12795). Double-stranded oligonucleotides (Table 1) were prepared by mixing equal amounts of the complementary single-stranded DNAs in 50 mM NaCl, heating to 70° C. for 15 min, and cooling to room temperature. The annealed oligonucleotides were labeled with ^32P in the presence of [γ^32P]-ATP (Amersham Pharmacia) and T4 polynucleotide kinase (New England Biolabs). Binding reactions were carried out in reaction mixture containing 20 mM Hepes (pH 7.9), 50 mM KCl, 5 mM DTT, 0.2 mM EDTA, 0.5 mM PMSF, 10% glycerol, 1 μg/μl of poly(dI-dC) (Amersham Pharmacia) and 1 μg/μl of nuclear extract. The reaction mixture was incubated at room temperature for 30 min and DNA-protein complexes were separated by electrophoresis in a 4.5% nondenaturing polyacrylamide gel.
Purified ChREBP was incubated with PKA and/or PP2A in vitro and measured by gel-shift analysis with the [^32P]-radiolabeled WT oligonucleotide. Purified ChREBP was incubated for 20 min with ATP (1 mM), PKA (0.1 U/μl), 0.2 U/μl PKI, 0.025 U/μl PP2A and the PP2A inhibitor, okadaic acid (10 nM).

[7] = system: C-terminus ChREBP (bHLH/ZIP domain, Thr666); assay: Phosphorylation/dephosphorylation and DNA binding of recombinant C-terminus ChREBP; format: biochemical, mouse; details: catalytic subunit of PP2A 200 units, 30° C
Description: Recombinant Protein Production—Recombinant protein of mouse ChREBP was expressed in Escherichia coli by inserting the C-terminus of the ChREBP construct, encoding the amino acids 651-864 of ChREBP+His6 tag, into the BamHI and HindIII sites of the T7-based expression vector pMal-c2 (New England Bio Lab, Beverly, Mass.) to produce an N-terminal fusion with maltose-binding protein. Expressed protein was purified according to manufacturer's instruction.
Phosphorylation and Dephosphorylation of ChREBP—The reaction mixture contained, in a final volume of 0.2 ml, 50 mM Tris/Cl pH 7.5, 0.2 μM [γ-^32P]ATP (3000 Ci/mmol), 5 mM MgCl2, 0.2 mM EDTA, 2 mM dithiothreitol, and 5 mM potassium phosphate. […] At given time intervals, aliquots were removed and DNA-binding activity was determined by gel shift assay as described in Example 2. [^32P]phosphate-bound ChREBP was also determined as previously described (Kitajima and Uyeda (1983) J. Biol Chem 258, 7352-7357).
FIG. 13A is a graph showing that phosphate incorporation mediated by PKA correlates directly with DNA binding. […] At given time intervals, [^32P]phosphate incorporation (□) and DNA-binding activity (▪) were determined. Values are expressed as mean±SE. […] At given time intervals, remaining phosphorylated C-terminus ChREBP (□) and DNA-binding activity (▪) were determined. Values are expressed as mean±SE.

[8] = molecular target: T1, ChREBP (Carbohydrate Response Element Binding Protein) from rat liver (UniProt Q8VIP2)
T1 sequence: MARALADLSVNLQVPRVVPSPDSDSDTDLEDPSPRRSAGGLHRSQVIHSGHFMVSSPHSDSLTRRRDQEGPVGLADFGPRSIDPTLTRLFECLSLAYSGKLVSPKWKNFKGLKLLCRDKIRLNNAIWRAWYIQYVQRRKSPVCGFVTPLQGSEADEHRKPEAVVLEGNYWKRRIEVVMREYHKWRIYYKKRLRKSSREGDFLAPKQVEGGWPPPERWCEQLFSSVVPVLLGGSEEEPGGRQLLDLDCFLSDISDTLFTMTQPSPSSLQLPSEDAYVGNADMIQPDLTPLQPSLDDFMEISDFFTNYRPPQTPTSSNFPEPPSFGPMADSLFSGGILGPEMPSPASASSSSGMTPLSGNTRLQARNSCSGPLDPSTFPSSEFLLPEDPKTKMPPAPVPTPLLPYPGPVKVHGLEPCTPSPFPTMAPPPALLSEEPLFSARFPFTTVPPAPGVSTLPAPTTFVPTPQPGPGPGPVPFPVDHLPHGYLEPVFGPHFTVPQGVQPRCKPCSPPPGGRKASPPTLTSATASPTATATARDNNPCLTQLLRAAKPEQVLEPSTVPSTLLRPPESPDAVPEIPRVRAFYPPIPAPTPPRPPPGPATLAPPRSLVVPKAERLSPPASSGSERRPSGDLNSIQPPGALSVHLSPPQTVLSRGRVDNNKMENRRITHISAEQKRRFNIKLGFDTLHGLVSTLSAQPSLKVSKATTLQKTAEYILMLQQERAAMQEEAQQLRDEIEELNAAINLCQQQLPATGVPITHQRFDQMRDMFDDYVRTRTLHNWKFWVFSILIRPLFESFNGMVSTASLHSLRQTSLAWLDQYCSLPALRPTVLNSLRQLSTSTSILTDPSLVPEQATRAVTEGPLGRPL

[9] = molecular target: T2, ChREBP, purified from rat liver (Rattus norvegicus, UniProt Q8VIP2 Q8VIP2:1-865); assay: pulldown; DNA-affinity column; eluted at 0.8 M KCl
T2 sequence: T1 sequence

[10] = molecular target: T2, ChREBP, purified from rat liver; assay: EMSA; purified ChREBP; details: label: 32P
Procedure: Purified ChREBP was incubated with PKA and/or PP2A in vitro and measured by gel-shift analysis with the [³²P]-radiolabeled WT oligonucleotide. Purified ChREBP was incubated for 20 min with ATP (1 mM), PKA (0.1 U/μl), 0.2 U/μl PKI, 0.025 U/μl PP2A and the PP2A inhibitor, okadaic acid (10 nM).

transcriptional activity of S196A+T666A ChREBP double mutant [3]: not inhibited
Molecule: CCCC(=O)Nc1ncnc2c1ncn2[C@@H]1O[C@@H]2COP(=O)(O)O[C@H]2[C@H]1OC(=O)CCC [db-cAMP, Dibutyryl (db)-cAMP]
export of GFP-ChREBP from nuclei to cytoplasm [1]: not exported
time after injection to inactivation of ChREBP DNA-binding activity in liver nuclear extracts [2]: ≤ 10 min

Molecule: CCCCCCCC(=O)O [octanoate]
AMP [4]: 942 ± 106 nmol/g cells
AMP/ATP ratio [4]: 0.30 ± 0.03
increase of AMPK activity compared to absence of fatty acid [5]: about two-fold

DNA-binding activity of inactivated ChREBP [6]: restored
DNA-binding activity of 32P-phosphorylated bHLH/ZIP domain on incubation with PP2A [7]: complete recovering of the activity
Molecule: PP2A: catalytic subunit of protein phosphatase 2A

Molecule: catalytic subunit of cAMP-dependent protein kinase (PKA)
radiolabeling of ChREBP with γ-[32P]-ATP (SDS-PAGE) [8]: leads to radiolabeling of ChREBP

B1: DNA-affinity column ChRE (dsDNA)
DNA 1: CATGGGCGCACGGGGCACTCCCGTGGTTCC
DNA 2: GGAACCACGGGAGTGCCCCGTGCGCCCATG
binding result [9]: binds

B2: LPK ChRE WT (dsDNA)
DNA 1: GGGCGCACGGGGCACTCCCGTGGTTCC
DNA 2: GGAACCACGGGAGTGCCCCGTGCGCCC
binding result [10]: binds
